Data as given in US20240067693A1, “POLYPEPTIDES AND USES THEREOF” (MEDIMMUNE LIMITED, priority 2020, published 2024).
Numbered stars: 1 amine (or outer) side, 2 acyl side, 3 side chain; on linkers, the order of the positions; unused ones are H or OH. Bridge positions count the residues as written; N and C are the ends. Square brackets hold non-standard residues; d marks the D form. Side chains are listed from the residue outwards. Peptide text beside a SMILES is read from it. * marks the point of attachment. C18 diacid = O=C(O)CCCCCCCCCCCCCCCCC(=O)*; γGlu = O=C(O)[C@H](CCC(=O)[*:2])N[*:1]; Aib = CC(C)(N)C(=O)O

What was measured:
[1] = target: T1, human calcitonin receptor (hCTR) (Homo sapiens, UniProt P30988); assay: cAMP production in 1321N1 cells with stable recombinant expression of human calcitonin receptor (hCTR); assay type: cell-based; details: cAMP, 1321N1 cells, assay buffer with 0.1% BSA; read-out: EC50 (pM) hCTR
T1 construct: expressed in transfected cells
T1 sequence (P30988 25-474): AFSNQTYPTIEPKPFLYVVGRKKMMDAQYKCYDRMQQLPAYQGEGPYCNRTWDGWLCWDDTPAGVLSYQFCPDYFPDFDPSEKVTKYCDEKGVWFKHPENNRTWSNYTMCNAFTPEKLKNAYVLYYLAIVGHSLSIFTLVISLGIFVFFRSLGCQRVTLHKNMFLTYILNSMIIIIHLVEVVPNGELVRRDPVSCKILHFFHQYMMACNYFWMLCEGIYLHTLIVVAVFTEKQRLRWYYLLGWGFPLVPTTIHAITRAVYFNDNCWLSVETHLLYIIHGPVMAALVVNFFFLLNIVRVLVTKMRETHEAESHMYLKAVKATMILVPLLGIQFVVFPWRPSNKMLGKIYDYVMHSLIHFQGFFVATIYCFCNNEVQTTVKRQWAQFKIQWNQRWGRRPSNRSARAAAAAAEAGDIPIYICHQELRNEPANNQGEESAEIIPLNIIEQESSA
Procedure, shortened: (§1)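 Receptor-expressing cells (human receptors in 1321N1, rat receptors in HEK) incubated 30 min at room temperature with peptide in HBSS/HEPES pH 7.4, 0.1% BSA, 0.5 mM IBMX. cAMP read by HTRF; EC50 from 4-parameter fit as % of maximal amylin or calcitonin response.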

[2] = target: T2, human amylin receptor (calcitonin receptor co-expressed with receptor activity modifying protein, RAMP3) (hAMYR3) (Homo sapiens, UniProt O60896+P30988); assay: cAMP production in 1321N1 cells with stable recombinant expression of human amylin receptor (hAMYR3); assay type: cell-based; details: for Ratio (selectivity hAMYR vs hCTR, ratio of EC50 values at the two receptors): EC50 hCTR / EC50 hAMYR3; for EC50: cAMP, 1321N1 cells, assay buffer with 0.1% BSA, read-out: EC50 (pM) hAMYR3
T2 construct: expressed in transfected cells
T2 sequence (P30988 25-474): T1 sequence (P30988 25-474)
T2 sequence (O60896 24-148 partner): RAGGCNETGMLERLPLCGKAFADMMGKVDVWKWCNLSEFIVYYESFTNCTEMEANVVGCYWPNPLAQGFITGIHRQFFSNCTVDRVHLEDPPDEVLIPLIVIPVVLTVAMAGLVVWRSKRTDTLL
Procedure, shortened: as §1

CC[C@H](C)[C@H](NC(=O)[C@@H]1CCCN1C(=O)CNC(=O)[C@H](Cc1ccccc1)NC(=O)[C@H](CC(N)=O)NC(=O)[C@H](CC(N)=O)NC(=O)[C@H](CO)NC(=O)[C@H](CO)NC(=O)[C@H](Cc1c[nH]cn1)NC(=O)C(C)(C)NC(=O)[C@H](CC(C)C)NC(=O)[C@H](Cc1ccccc1)NC(=O)[C@H](CC(N)=O)NC(=O)[C@H](C)NC(=O)[C@H](CC(C)C)NC(=O)[C@H](CCCNC(=N)N)NC(=O)[C@H](CCC(N)=O)NC(=O)[C@@H](NC(=O)[C@H](C)NC(=O)[C@@H]1CSSC[C@H](NC(=O)[C@H](CCCCN)NC(=O)[C@@H](N)CCCCNC(=O)CC[C@H](NC(=O)CCCCCCCCCCCCCCCCC(=O)O)C(=O)O)C(=O)N[C@@H](CC(N)=O)C(=O)N[C@@H]([C@@H](C)O)C(=O)N[C@@H](C)C(=O)N[C@@H]([C@@H](C)O)C(=O)N1)[C@@H](C)O)C(=O)N[C@@H](CC(C)C)C(=O)N1CCC[C@H]1C(=O)N1CCC[C@H]1C(=O)N[C@H](C(=O)N[C@@H](CC(N)=O)C(=O)N[C@H](C(=O)NC(C)(C)C(=O)N[C@@H](CO)C(=O)N[C@@H](CC(N)=O)C(=O)N[C@H](C(=O)N[C@@H](Cc1ccc(O)cc1)C(N)=O)[C@@H](C)O)C(C)C)[C@@H](C)O [Peptide 100, K(γE-C18diacid)K[CNTATC]ATQRLANFL(Aib)HSSNNFGPILPPTNV(Aib)SNTY-amide] (H-K([γGlu-C18 diacid])KCNTATCATQRLANFL[Aib]HSSNNFGPILPPTNV[Aib]SNTY-NH2; disulfide 3-8; N-terminus assumed)
EC50 [1]: 459 pM
Ratio (selectivity hAMYR vs hCTR, ratio of EC50 values at the two receptors) [2]: 1
EC50 [2]: 364 pM

CC[C@H](C)[C@H](NC(=O)[C@@H]1CCCN1C(=O)CNC(=O)[C@H](Cc1ccccc1)NC(=O)[C@H](CC(N)=O)NC(=O)[C@H](CC(N)=O)NC(=O)[C@H](CO)NC(=O)[C@H](CO)NC(=O)[C@H](Cc1c[nH]cn1)NC(=O)C(C)(C)NC(=O)[C@H](CC(C)C)NC(=O)[C@H](Cc1ccccc1)NC(=O)[C@H](CC(N)=O)NC(=O)[C@H](C)NC(=O)[C@H](CC(C)C)NC(=O)[C@H](CCCNC(=N)N)NC(=O)[C@H](CCC(N)=O)NC(=O)[C@@H](NC(=O)[C@H](C)NC(=O)[C@@H]1CSSC[C@H](NC(=O)[C@H](CCCCN)NC(=O)[C@@H](N)CCCCNC(=O)CC[C@H](NC(=O)CCCCCCCCCCCCCCCCC(=O)O)C(=O)O)C(=O)N[C@@H](CC(N)=O)C(=O)N[C@@H]([C@@H](C)O)C(=O)N[C@@H](C)C(=O)N[C@@H]([C@@H](C)O)C(=O)N1)[C@@H](C)O)C(=O)N[C@@H](CC(C)C)C(=O)N1CCC[C@H]1C(=O)N1CCC[C@H]1C(=O)N[C@H](C(=O)N[C@@H](CC(N)=O)C(=O)N[C@H](C(=O)NCC(=O)NC(C)(C)C(=O)N[C@@H](CC(N)=O)C(=O)N[C@H](C(=O)N[C@@H](Cc1ccc(O)cc1)C(N)=O)[C@@H](C)O)C(C)C)[C@@H](C)O [Peptide 101, K(γE-C18diacid)K[CNTATC]ATQRLANFL(Aib)HSSNNFGPILPPTNVG(Aib)NTY-amide] (H-K([γGlu-C18 diacid])KCNTATCATQRLANFL[Aib]HSSNNFGPILPPTNVG[Aib]NTY-NH2; disulfide 3-8; N-terminus assumed)
EC50 [1]: 441 pM
Ratio (selectivity hAMYR vs hCTR, ratio of EC50 values at the two receptors) [2]: 2
EC50 [2]: 177 pM
